According to patent US4472414A, “Spiro[indolo[1,7-ab][1,5]benzodiazepine-2,4'-piperidines]” (Hoechst-Roussel Pharmaceuticals Incorporated, priority 1983, dated 1984):
Structures can show the parent of a compound that is named as a salt.

System: 2-phenyl-1,4-benzoquinone-induced writhing
Assay: 2-phenyl-1,4-benzoquinone-induced writhing test in mice (Phenylquinone Writhing), analgesic activity
Type: in vivo
Settings: Mus musculus, sc, read-out: Inhibition of Writing ED50
Description: Compounds of Formula I of the present invention, namely, compounds of Formulas II, III and IV are useful as analgesic agents due to their ability to alleviate pain in mammals. […] Exptl. Biol. Med., 95, 729 (1957)].

## CC1Nc2ccccc2N2CC3(CCN(C)CC3)c3cccc1c32 (stereo not shown) [1',6-Dimethyl-1,2,6,7-tetrahydro-spiro[indolo[1,7-ab][1,5]benzodiazepine-2,4'-piperidine]dihydrochloride]
  ED50: 9.7 mg/kg

## CC1=Nc2ccccc2N2CC3(CCN(C)CC3)c3cccc1c32 [1,2-Dihydro-1',6-dimethyl-spiro[indolo[1,7-ab][1,5]benzodiazepine-2,4'-piperidine]dihydrochloride]
  ED50: 4.7 mg/kg

## CN1CCC2(CC1)CN1c3ccccc3N=Cc3cccc2c31 [1,2-Dihydro-1'-methyl-spiro[indolo[1,7-ab][1,5]benzodiazepine-2,4'-piperidine]dihydrochloride]
  ED50: 12.1 mg/kg

## CC1c2cccc3c2N(CC32CCN(C)CC2)c2ccccc2N1C(=O)CCN(C)C (stereo not shown) [7-(N,N-dimethyl-3-aminopropionyl)-1',6-dimethyl-1,2,6,7-tetrahydro-spiro[indolo[1,7-ab][1,5]benzodiazepine-2,4'-piperidine]dihydrobromide]
  ED50: 28.4 mg/kg
